{"source": "patent US20240247026A1", "about": "“SALTS AND CRYSTALLINE FORMS OF (3E) 3-[O-[(PHOSPHONOOXY)METHYL]OXIME]-PREGN-4-ENE-3,20-DIONE AND RELATED USES” (NeuroTrauma Sciences LLC, priority 2021, published 2024)", "key": {"[1]": {"assay": "Primary salt screen: XRPD re-analysis after drying at 40° C. and after storage at 40° C./75% RH", "format": "physicochemical", "conditions": "for Remained pattern after 40° C.: dried at 40° C. for ca. two days; for Remained pattern after 40° C./78% RH: stored for ca. 24 h", "protocol": "Salt crystallization screening was carried out as follows. Ca. […] The experiments were temperature cycled between ambient and 40° C. in 4 hour cycles for ca. 72 h. […] The solids were then isolated via centrifuge filter and analyzed by XRPD. Selected salts were dried at 40° ° C. for ca. two days and re-analyzed by XRPD. The salts were also characterized by TG/DSC and ^1H NMR."}, "[2]": {"assay": "One week (7-day) stability testing, HPLC purity and XRPD form", "conditions": "for Loss in purity, one week stability: open vial", "protocol": "After one week the solids were analyzed by XRPD for physical stability and HPLC for purity.\nSeven day stability testing was carried out for Form III at 40° C./75% RH and ambient in open vials. 80° C. was carried out in an open 2 mL vial within a closed 20 mL vial.\nThe crystalline Bis-Sodium Pattern 3 material underwent 7-day stability tests at 40° C./75% RH (open vial); at ambient temperature, light and humidity (open vial) and 80° C. (sealed vial), with post-stability storage XRPD and HPLC analysis. The solubility of the bis-sodium pattern 3 salt was assessed."}, "[3]": {"assay": "Dynamic vapour sorption (DVS)", "format": "physicochemical", "protocol": "Dynamic Vapour Sorption (DVS). Approximately 10-20 mg of sample was placed into a mesh vapour sorption balance pan and loaded into a DVS Advantage dynamic vapour sorption balance by Surface Measurement Systems. The sample was subjected to a ramping profile from 40-90% relative humidity (RH) at 10% increments, maintaining the sample at each step until a stable weight had been achieved (dm/dt 0.004%, minimum step length 30 minutes, maximum step length 500 minutes) at 25° C. After completion of the sorption cycle, the sample was dried using the same procedure to 0% RH and then a second sorption cycle back to 40% RH. Two cycles were performed. The weight change during the sorption/desorption cycles were plotted, allowing for the hygroscopic nature of the sample to be determined. XRPD analysis was then carried out on any solid retained."}, "[4]": {"assay": "Salt disproportionation and hydration studies", "format": "physicochemical", "conditions": "ambient, ca. 24 h; for Hydration studies, outcome: 3 water activities; for Disproportionation experiment, outcome: water"}, "[5]": {"assay": "Thermodynamic solubility studies in pH buffers", "conditions": "shaken at ambient ca. 24 h", "protocol": "Ca. 6 mg of the salt was weighed into a 2 mL vial and 50 μL aliquots of pH 7.4 PBS was added until dissolution was obtained. […] The preparations were analyzed by XRPD, PLM, TG/DSC, DSC, DVS, FTIR, ^1H and ^31P NMR and HPLC purity. One week stability testing was carried out, salt disproportionation and hydration studies and thermodynamic solubility.\nSalt disproportionation and hydration studies were carried out as follows: Ca. 30 mg of each salt was suspended in 400 μL of the solvent systems shown in and shaken at ambient for ca. 24 h. Thermodynamic solubility studies were carried out as follows: Ca. 30 mg of each salt was suspended in 400 μL of the solvent systems shown in and shaken at ambient for ca. 24 h."}, "[6]": {"conditions": "80° C., listed as N-(hydroxyethyl)pyrrolidine Pattern 2"}, "[7]": {"conditions": "listed as N-(hydroxyethyl)pyrrolidine Pattern 2"}}, "note": "“Also recorded” adds a separate entry of the source."}
{"smiles": "NCCO", "note": "[Ethanolamine]", "values": [{"measurement": "Remained pattern after 40° C.", "setting": "[1]", "value": "Yes"}]}
{"smiles": "CC(=O)C1CCC2C3CCC4=CC(=NOCOP(=O)(O)O)CCC4(C)C3CCC12C.NC(CO)(CO)CO", "note": "(stereo not shown) [Form III]", "values": [{"measurement": "XRPD form after one week stability", "setting": "[2]; 80° C.", "value": "Form IV"}]}
{"smiles": "CC(=O)[C@H]1CC[C@H]2[C@@H]3CCC4=CC(=NOCOP(=O)(O)O)CC[C@]4(C)[C@H]3CC[C@]12C.OCCN1CCCC1.OCCN1CCCC1", "note": "[Form V]", "values": [{"measurement": "Loss in purity, one week stability", "setting": "[2]; 40° C./75% RH", "value": "No loss in purity"}, {"measurement": "Loss in purity, one week stability", "setting": "[2]; 40° C./75% RH, listed as N-(hydroxyethyl)pyrrolidine Pattern 2", "value": "No loss in purity at ambient"}, {"measurement": "Decrease in purity, one week stability", "setting": "[2]; 80° C.", "value": 0.9, "unit": "% Area"}, {"measurement": "XRPD form after one week stability", "setting": "[2]; 80° C.", "value": "some minor changes"}, {"measurement": "Decrease in purity, one week stability", "setting": "[2]; [6]", "value": "& 40° C./75% RH. 0.9% Area"}, {"measurement": "XRPD form after one week stability", "setting": "[2]; [6]", "value": "minor changes at 80 °C"}, {"measurement": "XRPD form after one week stability", "setting": "[2]; all conditions tested", "value": "Form V remained; also recorded: remain unchanged"}, {"measurement": "XRPD form after one week stability", "setting": "[2]; all conditions tested, listed as N-(hydroxyethyl)pyrrolidine Pattern 2", "value": "Remained Pattern 2, some"}, {"measurement": "Loss in purity, one week stability", "setting": "[2]; ambient light and temperature", "value": "No loss in purity"}, {"measurement": "Loss in purity, one week stability", "setting": "[2]; ambient light and temperature, listed as N-(hydroxyethyl)pyrrolidine Pattern 2", "value": "No loss in purity at ambient"}, {"measurement": "Post DVS XRPD form", "setting": "[3]", "value": "remain unchanged"}, {"measurement": "DVS hygroscopic nature", "setting": "[3]; 25° C.", "value": "hygroscopic"}, {"measurement": "DVS total uptake at 90% RH", "setting": "[3]; 25° C.", "value": 19.0, "unit": "%"}, {"measurement": "DVS total uptake at 90% RH as equivalents of water", "setting": "[3]; 25° C.", "value": "7.3 equivalents of water"}, {"measurement": "DVS uptake between 40% RH and 90% RH", "setting": "[3]; 25° C.", "value": 17.8, "unit": "%"}, {"measurement": "DVS uptake between 40% RH and 90% RH", "setting": "[3]; 25° C., listed as N-(hydroxyethyl)pyrrolidine Pattern 2", "value": 17.8, "unit": "% uptake between 40 &"}, {"measurement": "Hydration studies, outcome", "setting": "[4]", "value": "Solutions were obtained; also recorded: no solids after 24 h"}, {"measurement": "Hydration studies, outcome", "setting": "[4]; [7]", "value": "Solutions obtained"}, {"measurement": "Disproportionation experiment, outcome", "setting": "[4]", "value": "Solutions were obtained; also recorded: no solids after 24 h"}, {"measurement": "Disproportionation experiment, outcome", "setting": "[4]; [7]", "value": "Solutions obtained"}, {"measurement": "Remained pattern after 40° C.", "setting": "[1]", "value": "Yes"}, {"measurement": "Remained pattern after 40° C./78% RH", "setting": "[1]", "value": "Yes"}, {"measurement": "Solubility", "setting": "[5]; pH 7.4", "value": "> 45", "unit": "mg/mL"}, {"measurement": "Solubility", "setting": "[5]; pH 8", "value": "> 39", "unit": "mg/mL"}, {"measurement": "Solubility", "setting": "[5]; pH 8.5", "value": "> 39", "unit": "mg/mL"}]}
{"smiles": "CCNC[C@H](O)[C@@H](O)[C@H](O)[C@H](O)CO", "note": "[N-ethyl glucamine]", "values": [{"measurement": "Remained pattern after 40° C.", "setting": "[1]", "value": "Yes"}, {"measurement": "Remained pattern after 40° C./78% RH", "setting": "[1]", "value": "No. Mixture"}]}
{"smiles": "[K+]", "note": "[Potassium]", "values": [{"measurement": "Remained pattern after 40° C.", "setting": "[1]", "value": "Yes"}, {"measurement": "Remained pattern after 40° C./78% RH", "setting": "[1]", "value": "No - Pattern 5"}, {"measurement": "Remained pattern after 40° C./78% RH", "setting": "[1]; listed as potassium Pattern 1", "value": "Pattern 5"}]}
{"smiles": "CC(=O)[C@H]1CC[C@H]2[C@@H]3CCC4=CC(=NOCOP(=O)([O-])[O-])CC[C@]4(C)[C@H]3CC[C@]12C.[Na+].[Na+]", "note": "[Sodium Pattern 3]", "values": [{"measurement": "Decrease in purity, one week stability", "setting": "[2]; 80° C.", "value": "Large drop in purity at 80 °C"}, {"measurement": "XRPD form after one week stability", "setting": "[2]; 80° C.", "value": "40° C./75% RH, Pattern 5"}, {"measurement": "Decrease in purity, one week stability", "setting": "[2]; 80° C., listed as sodium salt Pattern 3", "value": "large drop in purity"}, {"measurement": "XRPD form after one week stability", "setting": "[2]; all conditions tested", "value": "form conversion"}, {"measurement": "Solubility", "setting": "[5]; pH 7.4", "value": "<12", "unit": "mg/mL at pH 7.4"}]}
